C=C(C)[C@@H]1CC[C@]2(CO)CC[C@]3(C)[C@H](CC[C@@H]4[C@@]5(C)CC[C@H](O)C(C)(C)[C@@H]5CC[C@]43C)[C@@H]12
solubility (mole fraction)
Conditions	278.2 K	288.2 K	298.2 K	308.2 K	318.2 K
in acetone	0.000689	0.00101	0.0015	0.00203	0.00243
in ethanol	0.000842	0.00096	0.00107	0.00124	0.00135

— BigSolDB 2.1
